Measured values reported in US20100113473A1, “ARYL AMIDE COMPOUND AS AN ACETYL COENZYME A CARBOXYLASE INHIBITOR” (priority 2008, published 2010).

Experiments:
[1] = molecular target: T1, Human ACC2 (amino acids 1685-2458) (Homo sapiens, UniProt O00763); assay: ThermoFluor measurement of compound binding to ACC2 CT domain; details: carboxyterminus (CT) domain, pH 7.0, read-out: ACC2 TF Kd
T1 construct: Human ACC2 (amino acids 1685-2458); 6His (N, cleaved yes); FLAG (N, cleaved yes); TEV cleavage site (N, cleaved yes); made in house; host or cells: Sf9 insect cells (baculovirus)
Description: (§1) The 6His.FLAG.TEV Human ACC2 (amino acids 1685-2458) (Egea Biosciences, San Diego, Calif.) and 6His.FLAG. TEV. Human ACC1 (amino acids 1603-2383) (Egea Biosciences, San Diego, Calif.) genes were synthesized and subcloned into the pENTR11 vector. Transfection-grade DNA was purified using the QIAwell® Kit from Qiagen. The LR reaction was performed overnight and then transfected into Sf9 cells using a BaculoDirect® Baculovirus Expression System (Invitrogen). The P0 virus was collected 4 days post transfection and used for another round of virus amplification. The resulting P1 virus and cells were collected 3 days post-infection. […]
(§2) On-column cleavage of the histidine tag was performed by injecting 96 ug of TEV S219V protease/mg (of ACC2 CT. The product was incubated at 4° C. for 20 hours. The cleaved ACC2 was eluted in buffer A and loaded directly onto a HiLoad® 16/60 Superdex 200 column (GE Healthcare), preequilibrated with 25 mM Tris Buffer (at pH 8.0, 200 mM NaCl, 5% Glycerol, 5 mM DTT). Fractions containing ACC2 CT, assayed by SDS-PAGE, were pooled. For cocrystallization, the compound was added in a 1:2 molar ratio of protein:compound and incubated overnight at 4° C. The complex was concentrated to a final protein concentration of 7 mg/mL using an 30 kDa cut-off Ultrafree® membrane (Millipore, Billerica, Mass.) and was then ready for crystallization. […]

[2] = molecular target: T2, Human ACC1 (amino acids 1603-2383) (Homo sapiens, UniProt Q13085); assay: ThermoFluor measurement of compound binding to ACC1 CT domain; details: carboxyterminus (CT) domain, pH 7.0, read-out: ACC1 TF Kd
T2 construct: Human ACC1 (amino acids 1603-2383); 6His (N); FLAG (N); TEV cleavage site (N); made in house; host or cells: Sf9 insect cells (baculovirus)
Description: as §1, §2

[3] = system: ApoB secretion from HepG2 cells; assay: ApoB secretion from HepG2 cells; type: cell-based; details: Homo sapiens, 24 hours, ApoB in medium by ELISA
Description: HepG2 cells (American Type Culture Collection: Catalog No. #HB-8065) are maintained in Growth Media consisting of DMEM with 4.5 g/L glucose (Cellgro: Catalog No. #10-013-CV), supplemented with 10% fetal bovine serum (FBS) (Cellgro: Catalog No. #35-011-CV) and 100 U/mL each penicillin and streptomycin (Cellgro: Catalog No. #30-002-Cl). For the assay, cells are plated @ ˜10,000 cells/well in white, clear-bottom, 96-well plates (Costar: Catalog No. #3610) and incubated in a humidified 5% CO2 atmosphere at 37° C. The next day, Growth Media is replaced with RPMI 1640 without glucose (Cellgro: Catalog No. #10-043-CV), supplemented with 10% charcoal/dextran treated FBS (Hyclone: Catalog No. #SH30068.02) and 100 U/mL each penicillin and streptomycin (starvation media). The cells are maintained overnight in a humidified 5% CO2 atmosphere at 37° C. […] Twenty-four hours later, the growth medium is collected and assessed for ApoB content. […]
The samples are removed and the plate is washed again 3× with 200 μL PBST, then 100 μL of 1/10,000 HRP-conjugated, affinity-purified polyclonal sheep anti-human ApoB detection antibody (BioDesign International Product No. # K90086P) is added to each well and the plate is incubated for one hour at 37° C. […] The plate is read for one second in an Orion Microplate Luminometer®. […]

T1 sequence (O00763 1685-2458): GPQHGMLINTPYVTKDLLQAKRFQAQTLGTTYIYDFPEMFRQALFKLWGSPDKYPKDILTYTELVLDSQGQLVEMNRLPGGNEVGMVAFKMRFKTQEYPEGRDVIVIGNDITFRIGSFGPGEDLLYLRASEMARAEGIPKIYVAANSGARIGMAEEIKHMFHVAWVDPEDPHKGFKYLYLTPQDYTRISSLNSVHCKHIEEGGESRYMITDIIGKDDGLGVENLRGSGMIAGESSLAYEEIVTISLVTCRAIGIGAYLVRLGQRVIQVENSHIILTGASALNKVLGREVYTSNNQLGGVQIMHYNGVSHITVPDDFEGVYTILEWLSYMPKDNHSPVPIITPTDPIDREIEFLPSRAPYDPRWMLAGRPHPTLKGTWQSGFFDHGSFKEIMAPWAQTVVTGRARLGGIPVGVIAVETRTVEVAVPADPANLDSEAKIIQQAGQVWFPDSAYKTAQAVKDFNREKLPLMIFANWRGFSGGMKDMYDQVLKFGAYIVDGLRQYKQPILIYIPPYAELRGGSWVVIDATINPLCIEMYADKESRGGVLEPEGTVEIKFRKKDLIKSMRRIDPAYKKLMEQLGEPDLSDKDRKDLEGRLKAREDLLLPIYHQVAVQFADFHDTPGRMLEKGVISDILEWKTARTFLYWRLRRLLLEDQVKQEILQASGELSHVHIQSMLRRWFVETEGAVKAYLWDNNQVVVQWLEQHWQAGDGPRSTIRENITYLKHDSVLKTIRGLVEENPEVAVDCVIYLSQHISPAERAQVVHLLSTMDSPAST

Kd [1]: 400 nM
Kd [2]: 970 nM
IC50 [3]: 8 µM
SMILES: Cc1ccc2nc(-c3ccncc3)cc(C(=O)N3CCN(Cc4ccc5c(c4)OCCO5)CC3)c2c1 [Cpd 1, [4-(2,3-Dihydro-benzo[1,4]dioxin-6-ylmethyl)-piperazin-1-yl]-(6-methyl-2-pyridin-4-yl-quinolin-4-yl)methanone]
